Laboratory results: a compilation of properties of binary mixtures (doi:10.1021/acs.jced.5b00753)

Assay: xn = mol fraction of the nth substance listed
Conditions: 101 kPa

CC[n+]1ccn(C)c1.F[B-](F)(F)F + CC(=O)N(C)C
viscosity [mPa·s]
Conditions	x2 = 0	x2 = 0.0996	x2 = 0.1998	x2 = 0.2995	x2 = 0.3989	x2 = 0.5005	x2 = 0.6	x2 = 0.6996	x2 = 0.8001	x2 = 0.8994
303.15 K	–	22.75	–	13.99	10.62	7.83	–	–	–	1.549
313.15 K	20.41	16.86	13.59	10.65	8.23	–	–	3.147	2.092	1.328
323.15 K	–	12.8	10.45	–	6.555	4.982	3.69	2.638	1.79	1.154
333.15 K	12.08	10.09	8.31	–	–	4.122	3.115	2.252	1.563	1.029

CC(=O)N(C)C + CC[n+]1ccn(C)c1.F[B-](F)(F)F
x1 = 1
Conditions	viscosity [mPa·s]
303.15 K	0.862
313.15 K	0.758
323.15 K	0.673
333.15 K	0.602

CN(C)C=O + CC[n+]1ccn(C)c1.F[B-](F)(F)F
x1 = 1
Conditions	viscosity [mPa·s]
303.15 K	0.744
323.15 K	0.6

CS(C)=O + CC[n+]1ccn(C)c1.F[B-](F)(F)F
x1 = 1
Conditions	viscosity [mPa·s]
303.15 K	1.784
313.15 K	1.498
323.15 K	1.27
333.15 K	1.095

CC[n+]1ccn(C)c1.F[B-](F)(F)F + CN(C)C=O
viscosity [mPa·s]
Conditions	x2 = 0	x2 = 0.1016	x2 = 0.2016	x2 = 0.2994	x2 = 0.3987	x2 = 0.5005	x2 = 0.6004	x2 = 0.7	x2 = 0.7997	x2 = 0.8999
303.15 K	28	21.61	–	12.55	9.33	6.703	4.72	3.214	2.114	1.305
313.15 K	–	16.03	12.53	9.74	–	–	3.867	2.689	–	1.144
323.15 K	–	12.29	9.8	–	5.935	–	–	2.293	1.567	–
333.15 K	12.08	9.72	7.83	6.291	4.93	3.744	2.775	1.993	1.387	0.899

CC[n+]1ccn(C)c1.F[B-](F)(F)F + CS(C)=O
viscosity [mPa·s]
Conditions	x2 = 0	x2 = 0.1001	x2 = 0.2007	x2 = 0.2996	x2 = 0.4	x2 = 0.4996	x2 = 0.6002	x2 = 0.7002	x2 = 0.7996	x2 = 0.9002
303.15 K	28	24.39	–	–	14.08	11.13	–	6.249	–	2.928
313.15 K	20.41	17.83	15.25	–	10.59	8.46	6.575	4.936	3.515	2.385
323.15 K	15.35	13.54	11.62	9.91	–	6.667	5.296	3.971	2.893	–
333.15 K	12.08	10.64	9.18	7.87	6.571	5.382	4.335	3.294	2.438	–
